Source: patent US9375434B2, “Antitumor effect potentiator composed of imidazooxazine compound” (Taiho Pharmaceutical Co., Ltd., priority 2012, dated 2016)

Experiments:
Type in all cases: in vivo, BALB/cA Jcl-nu/nu mice
[1] = test system: Human stomach cancer cell line (4-1ST); assay: Potentiation of antitumor effect of TS-1, 4-1ST subcutaneous implant in nude mice (Test Example 8)
Protocol: (§1) As an index of antitumor effect, the TV at Day 15 was measured for each of the drug administration groups, and the relative tumor volume (RTV) relative to Day 1 and T/C (%) were calculated by the following formulas to evaluate the antitumor effect. […] In the figure, the asterisk represents a result having a statistically significant difference compared with the single-drug administration group.
(§2) FIG. 1 and Table 10 show the results. TV (mm^3)=(length×width^2)/2 RTV=(TV at Day 15)/(TV at Day 1) T/C(%)=(average RTV value of the test liquid administration group)/(average RTV value of the control group)×100
Human stomach cancer cell line (4-1ST) was subcutaneously implanted into the right flank of 6-week-old male BALB/cA Jcl-nu/nu mice, and was used in the same manner as in Test Example 1.
TS-1 was prepared by mixing FT (tegafur; Taiho Pharmaceutical Co., Ltd.), CDHP (gimeracil; Taiho Pharmaceutical Co., Ltd.) and Oxo (oteracil potassium; Taiho Pharmaceutical Co., Ltd.) at a molar ratio of 1:0.4:1, adding a 0.5% (w/v) HPMC aqueous solution to the mixture at an FT concentration of 1.66 mg/mL, and subjecting the mixture to a ultrasonic treatment to obtain an even suspension (an administration liquid having a double concentration of the liquid in the group of 8.3 mg/kg/day dose). The suspension was diluted two-fold with a 0.5% (w/v) HPMC aqueous solution to a concentration of 0.83 mg/mL, thereby yielding an administration liquid to be used for the group of 8.3 mg/kg/day dose. Further, the test liquid of Compound-I was prepared by adjusting its dose to 16 and 24 mg/kg/day.
Compound-I and TS-1 were orally administered once a day for 14 days from Day 1. In the combined administration groups, Compound-I at a dose of 16 and 24 mg/kg/day, and TS-1 at a dose of 8.3 mg/kg/day were administered, and the evaluation was performed in the same manner as in Test Example 1. FIGS. 15A and 15B, and Table 17 show the results.
In the same manner as in Test Example 7, the effect of the combined administration was also statistically determined. In the figure and the table, the asterisk represents a result having a statistically significant difference compared with the single-drug administration group.

[2] = test system: Human stomach cancer cell line (NCI-N87); assay: Potentiation of antitumor effect of everolimus, NCI-N87 subcutaneous implant in nude mice (Test Example 7); conditions: compound-I 16 mg/kg/day p.o. day 1-14
Protocol: as §1, §2
Human stomach cancer cell line (NCI-N87) was subcutaneously implanted into the right flank of 7-week-old male BALB/cA Jcl-nu/nu mice, and was used in the same manner as in Test Example 1.
In the group receiving only everolimus (IS Chemical Technology), the test liquid was prepared to enable administration at an everolimus dose of 5 mg/kg/day. A vehicle of 5% ethyl alcohol/5% PEG400/4% Tween 20/86% distilled water was used. In the groups receiving only Compound-I, the test liquid was prepared by diluting Compound-I with 0.5% HPMC to enable administration at a Compound-I dose of 16 mg/kg/day. In the combined administration group, Compound-I was administered at a dose of 16 mg/kg/day, and everolimus was administered at a dose of 5 mg/kg/day. Both Compound-I and everolimus were orally administered once a day for 14 days from Day 1, and the evaluation was performed in the same manner as in Test Example 1. FIG. 13 and Table 16 show the results.
In the figure and the table, the asterisk represents a result having a statistically significant difference compared with the single-drug administration group.

[3] = test system: Human ovarian cancer A2780 cell line; assay: Potentiation of antitumor effect of paclitaxel, A2780 subcutaneous implant in nude mice (Test Example 1)
Protocol: Human ovarian cancer A2780 cell line was subcutaneously implanted into the right flank of 7-week-old male BALB/cA Jcl-nu/nu mice. After the implant, the length (mm) and the width (mm) of the tumor were measured, and the tumor volume (TV) was calculated. Thereafter, the mice were divided into groups so that the average TV is equalized in each group. The day of grouping (n=5) is referred to as Day 0. […] Test liquids for the groups receiving only Compound-I were prepared by diluting Compound-I with 0.5% hydroxypropyl methylcellulose (HPMC) so as to enable administration at a Compound-I dose of 8 mg/kg/day, 16 mg/kg/day, and 24 mg/kg/day. […] In the groups receiving the two drugs, Compound-I was administered at doses of 8 mg/kg/day, 16 mg/kg/day, and 24 mg/kg/day, and paclitaxel was administered at a dose of 60 mg/kg/day. […] In the figure, the asterisk represents a result having a statistically significant difference compared with the single-drug administration group. FIG. 1 and Table 10 show the results.

[4] = compound-I 16 mg/kg/day p.o. day 1-14
[5] = compound-I 24 mg/kg/day p.o. day 1-14
[6] = compound-I 8 mg/kg/day p.o. day 1-14

Compound: CC1(O)CC(N)(c2ccc(-c3nc4n(c3-c3ccccc3)COc3ccncc3-4)cc2)C1 (stereo not drawn) [compound-I, trans-3-amino-1-methyl-3-(4-(3-phenyl-5H-imidazo[1,2-c]pyrido[3,4-e][1,3]oxazin-2-yl)phenyl)cyclobutanol]
- RTV day 15 Mean ± SD [1, 4]: 4.53 ± 0.59
- T/C (%) [1, 4]: 38.1%
- RTV day 15 Mean ± SD [1, 5]: 3.83 ± 0.48
- T/C (%) [1, 5]: 32.2%
- RTV day 15 Mean ± SD [2]: 1.19 ± 0.27
- T/C (%) [2]: 43%
- RTV day 15 Mean ± SD [3, 6]: 23.66 ± 9.16
- T/C (%) [3, 6]: 92%
- RTV day 15 Mean ± SD [3, 4]: 19.91 ± 1.41
- T/C (%) [3, 4]: 77%
- RTV day 15 Mean ± SD [3, 5]: 18.94 ± 5.52
- T/C (%) [3, 5]: 74%
